Experimental data reported in US20250213593A1, “Use of Derivatives based on Sarsasapogenin Structure and Pharmaceutical Compositions thereof” (BEIJING PHYTOVENT PHARMACEUTICAL TECHNOLOGY CO., LTD., priority 2022, published 2025).
In brackets after ≈: the same amount, converted by molar mass. Entries after “also recorded” stand apart in the source; their conditions may differ.

Experiments:
[1] = tested on: transgenic neutrophil fluorescent zebrafishes; assay: Maximum tolerated concentration (MTC) in LPS-induced inflammation zebrafish; format: in vivo; settings: for Death count / Death rate (%): n = 30; for If precipitation occurred?: fish-farming water
From the text: Transgenic neutrophil fluorescent zebrafishes were matched and propagated naturally in pairs. The age was 3 days after fertilization (3 dpf), and there was a total of 810 zebrafishes, with 30 zebrafishes per experimental group. The purposes were to determine maximum tolerated concentrations (MTC) of “Embodiment 5” and “Embodiment 6” in an LPS-induced inflammation experiment, and evaluate anti-inflammatory effects of “Embodiment 5” and “Embodiment 6” on LPS-induced inflammations.
(§1) LPS was used to treat normal 3 dpf transgenic neutrophil fluorescent zebrafishes in a yolk sac injection, and a zebrafish inflammation model was established.
Transgenic neutrophil fluorescent zebrafishes (3 dpf), well developed and consistent in stage on 3 days after fertilization, were picked under a microscope and placed in a six-well plate, with 30 zebrafishes being randomly picked for each well at a capacity of 3 mL in each well. A zebrafish inflammation model was established by administrating LPS in a yolk sac injection. “Embodiment 5” and “Embodiment 6” were respectively dissolved with water, wherein the concentrations were 0.625 μM, 1.25 μM, 2.5 μM, 5 μM, 10 μM, 50 μM, 100 μM and 200 μM, respectively. Meanwhile, anormal control group (i.e., zebrafishes were treated with fish-farming water) and a model control group were set, and cultured in a 28° C. incubator for 3 h, and the death of zebrafishes was then observed and recorded. The number of dead zebrafishes in each experimental group was counted, and the maximum tolerated concentrations (MTCs) of zebrafishes in “Embodiment 5” and “Embodiment 6” were determined.

[2] = tested on: transgenic neutrophil fluorescent zebrafishes; assay: Anti-inflammatory effect on LPS-induced inflammatory zebrafish; format: in vivo
Procedure: as §1
Transgenic neutrophil fluorescent zebrafishes (3 dpf), well developed and consistent in stage on 3 days after fertilization, were picked under a microscope and placed in a six-well plate, with 30 zebrafishes being randomly picked for each well at a capacity of 3 mL in each well. A zebrafish inflammation model was established by administrating LPS in a yolk sac injection. “Embodiment 5” and “Embodiment 6” were respectively dissolved with water, wherein the concentrations were 0.28 μM, 0.83 μM and 2.5 μM, respectively. The concentration of indomethacin was 80 μM. Meanwhile, a normal control group (i.e., zebrafishes were treated with fish-farming water) and a model control group were set, and incubated in a 28° C. incubator for 3 h. 10 zebrafishes were randomly selected from each group, and observed and photographed under a fluorescence microscope, and the photos were saved. Nikon NIS-Elements D 3.10 advanced image processing software was used for image analysis, the number (N) of inflammatory neutrophils in zebrafish was calculated, and the statistical processing results were expressed as mean±SE. The statistical analysis results of the number of inflammatory neutrophils in zebrafish were used to evaluate whether “Embodiment 5” and “Embodiment 6” had significant anti-inflammatory effects on LPS-induced inflammatory zebrafish, respectively. A formula for calculating the anti-inflammatory effects of “Embodiment 5” and “Embodiment 6” was as follows: […]

[3] = physchem; settings: organic solvent or mixture
[4] = tested on: C57BL/6 mouse MCAO damage model; assay: Mice middle cerebral artery occlusion (MCAO) damage model; format: in vivo; settings: 24 h after surgery, vs MCAO model group
Procedure: Animal grouping and treatment: according to body weight on Day 1, the animals were randomly divided into a total of 8 groups (N=5), one group was treated every day, and 3 animals were selected in each group for measuring cerebral blood flows.
If the hind paws of the mice had no response when clamped with dissecting forceps, they were transferred to an anesthesia mask, and the isoflurane concentration would be increased to 1.5%. A thermostat and an anal temperature probe were used to maintain intraoperative body temperatures of the mice near 37° C. […]
Measurement of cerebral blood flow: the head of each mouse was fixed under a brain stereotaxic instrument, the head hair of the mouse was shaved, and an incision was made in the middle. […] Optical fibers of a laser Doppler flow meter were fixed with glue at coordinates of Bregma AP 1.0 mm and ML 5.0 mm, and the blood flow changes during MCA surgery were recorded. […]
• Body weight: the body weights of the mice on the day before surgery and 24 h after surgery were recorded. • Neurological function scoring: Longa behavioral scoring was performed at 2 h and 24 h after surgery. […]
Each mouse was tested for forelimb grip 24 h before surgery and 24 h after surgery. […] The grip peaks were recorded, repeatedly measured for three times, and averaged. […]

[5] = tested on: transgenic AD mice (C57BL/6J background); assay: Light/dark box test of AD mice; format: in vivo, mouse; settings: 6 months after administration
From the text: The principle of the light/dark box test is: the mice have a natural tendency to darkness; and after the mice was put into a light box, the mice would spontaneously enter a connected dark box. However, in this experiment, the dark box was equipped with an electrical stimulation mechanism, and the mice would be shocked when they entered the dark box.

[6] = tested on: C57BL/6 mice modeled with MPTP; assay: PD mouse model (MPTP); format: in vivo; settings: 80 mpk, 15 days; vs model group, T-test
Procedure: • Experimental and analytical method: mice of C57BL/6 strain were used in this experiment, which were divided into 5 groups, including a normal control group (no injection of MPTP), a model group (modeling with MPTP), and treatment groups of three small molecules (Embodiment 13B, Embodiment 25A, and Embodiment 25B). The drug was administered at the same time as modeling was made. The modeling lasted for 5 days, followed by 30 mpk intraperitoneal injection till lasting for 15 days, and lasted for 15 days at 80 mpk. At the endpoint, the brain was soaked and fixed in PFA after cardiac perfusion, and transferred to sucrose dehydration after complete fixation, and OCT embedding and sectioning were used for TH staining after complete dehydration. The detection indicator was the number of TH-positive cells in the substantia nigra. The more positive cells, the better the protection effect of small molecules against MPTP damage. • Results: there were 12 mice in each group, and the statistical results were shown in FIG. 50, T-test, **: p<0.01, #: p<0.05.

[7] = tested on: Raji-Luc hematologic tumor cells in NOD-Scid immunodeficient mice; assay: NOD-Scid mice inoculated with hematologic tumor cells Raji-Luc; settings: 100 mpk by gavage once a day
[8] = tested on: SMPs (submitochondrial particles); assay: Catalytic activity of SMPs (NADH dehydrogenation); format: biochemical; settings: Rotenone 2 μM, 10 min, 500 μM NADH
Procedure: Experiment 9. Detection of Small Molecule Compounds that Facilitated the Catalytic Activity of SMPs (Submitochondrial Particles) • Experimental and analytical method: HEK293 cells were cultured at 5% CO2, and purified to obtain mitocondria, which were sonicated to obtain SMPs (submitochondrial granules). SMPs were incubated with different concentrations of small molecule compounds or a control drug (Rotenone, 2 μM) for 10 min, and then added with 500 μM of NADH. The absorbance of NADH was detected by an Enspire multi-mode microplate reader, an enzyme activity curve with the decrease of NADH concentration catalyzed by SMPs was plotted, and a maximum reaction rate of SMPs was calculated by linear fitting. The addition of 1 mM FeCN to a normal NADH catalytic system of SMPs could cause an electronic pathway from NADH to coenzyme Q to be short-circuited.

[9] = concentration 0.625 (table head μg/mL; text μM)
[10] = concentration 0.625 (table head μg/mL; text μM), 3 h
[11] = concentration 1.25 (table head μg/mL; text μM)
[12] = concentration 1.25 (table head μg/mL; text μM), 3 h
[13] = concentration 2.5 (table head μg/mL; text μM)
[14] = concentration 2.5 (table head μg/mL; text μM), 3 h
[15] = concentration 5 (table head μg/mL; text μM), 3 h
[16] = concentration 10 (table head μg/mL; text μM), 3 h
[17] = concentration 50 (table head μg/mL; text μM), 3 h
[18] = concentration 100 (table head μg/mL; text μM), 3 h
[19] = concentration 200 (table head μg/mL; text μM), 3 h

## C[C@H]1CC[C@@]2(OC1)O[C@H]1C[C@H]3[C@@H]4CC[C@@H]5CC(NC(=O)CC(=O)N6CCN(C)CC6)CC[C@]5(C)[C@H]4CC[C@]3(C)[C@H]1[C@@H]2C (stereo partly drawn) [Embodiment 5]
[1]; [9]
  Toxicity: No obvious toxicity
  If precipitation occurred?: No
[1]; [10]
  Death count: 0
  Death rate (%): 0%
[1]; [11]
  Toxicity: No obvious toxicity
  If precipitation occurred?: No
[1]; [12]
  Death count: 0
  Death rate (%): 0%
[1]; [13]
  Toxicity: normal state; also recorded: No obvious toxicity
  If precipitation occurred?: not precipitated and No
[1]; [14]
  Death count: 0
  Death rate (%): 0%
[1]; [15]
  Death count: 3
  Death rate (%): 10%
[1]; concentration 5 (table head μg/mL; text μM)
  If precipitation occurred?: No
[1]; [16]
  Death count: 30
  Death rate (%): 100%
[1]; concentration 10 (table head μg/mL; text μM)
  If precipitation occurred?: No
[1]; [17]
  Death count: 30
  Death rate (%): 100%
[1]; concentration 50 (table head μg/mL; text μM)
  If precipitation occurred?: No
[1]; [18]
  Death count: 30
  Death rate (%): 100%
[1]; concentration 100 (table head μg/mL; text μM)
  If precipitation occurred?: No
[1]; [19]
  Death count: 30
  Death rate (%): 100%
[1]; concentration 200 (table head μg/mL; text μM)
  If precipitation occurred?: No
[1]; in the evaluation of the anti-inflammatory effect, LPS zebrafish, 3 h
  maximum tolerated concentration (MTC): 2.5 µM
[2]; 0.28 μM
  Inflammation resolution (%) / anti-inflammatory effect: 33%
[2]; 0.83 μM
  Inflammation resolution (%) / anti-inflammatory effect: 61%
[2]; 2.5 μM
  Inflammation resolution (%) / anti-inflammatory effect: 67%
[2]; 0.28 to 2.5 μM, P<0.001 vs model control
  anti-inflammatory effects on inflammatory zebrafish (in words): obvious anti-inflammatory effects
[3]
  solubility: 20 mM (≈ 11.7 mg/mL)

## CC1=NN(c2ccccc2)C(=O)C1 [Edaravone]
[4]; Edaravone 10 mg/kg IP, NO. 2 60 mg/kg PO, NO. 3-6 80 mg/kg PO
  forelimb grip strength: significant difference
[4]; doses as Table 6
  volume of encephaledema (TTC staining): significant difference

## C[C@H]1CC[C@@]2(OC1)O[C@H]1C[C@H]3[C@@H]4CC[C@@H]5CC(NC(=O)CC(=O)N6CC(N7CCOCC7)C6)CC[C@]5(C)C4CC[C@]3(C)[C@H]1[C@@H]2C (stereo partly drawn) [Embodiment 23]
[5]
  memory on electric shock (latency before entering the dark box): could effectively enhance the memory

## CCN1CCN(C2CCN(C(=O)CC(=O)N[C@@H]3CC[C@]4(C)C5CC[C@]6(C)[C@@H]7[C@H](C[C@H]6[C@@H]5CC[C@@H]4C3)O[C@]3(CC[C@H](C)CO3)[C@H]7C)CC2)CC1 (stereo partly drawn) [Embodiment 25B]
[6]
  number of TH-positive cells in the substantia nigra: only the Embodiment 13B group of three small modules had statistically significant differences
[7]
  tumor killing effect (in-vivo fluorescence intensity): relatively good tumor killing effects

## C=C(C)[C@H]1Cc2c(ccc3c2O[C@@H]2COc4cc(OC)c(OC)cc4[C@@H]2C3=O)O1 [Rotenone]
[8]
  dehydrogenation reaction of NADH by SMPs: completely blocked
